# According to the NIST ThermoML archive (doi:10.1016/j.fluid.2005.01.002):
# Values joined by “and” are separate entries in the source; they are usually repeats but may differ in a detail not shown here. Equal values may be shown once. Numbers after ± are expanded uncertainties.
# How the values were obtained:
# [1] = activity coefficient (dimensionless); of the first substance listed, at infinite dilution; xn = mol fraction of the nth substance listed; conditions: 353.15 K; 101.33 kPa; Liquid; Static method; x1 = 0
# [2] = 353.15 K; Liquid
Compound,activity coefficient [1],vapor or sublimation pressure [2]
CC(C)O [propan-2-ol] + CCCC[n+]1ccn(C)c1.O=S(=O)([N-]S(=O)(=O)C(F)(F)F)C(F)(F)F,1.1 ± 0.01,
CO [methanol],,182.61 ± 1.2 kPa
CC(C)O [propan-2-ol] + CCn1cc[n+](C)c1.O=S(=O)([N-]S(=O)(=O)C(F)(F)F)C(F)(F)F,1.42 ± 0.02,
O [water],,47.37 ± 0.58 kPa and 47.82 ± 0.58 kPa
C1CCOC1 [tetrahydrofuran],,155.92 ± 1 kPa and 157.86 ± 1 kPa
C1CCOC1 [tetrahydrofuran] + CCn1cc[n+](C)c1.O=S(=O)([N-]S(=O)(=O)C(F)(F)F)C(F)(F)F,0.8 ± 0.01,
CC(C)=O [acetone] + CCCC[n+]1ccn(C)c1.O=S(=O)([N-]S(=O)(=O)C(F)(F)F)C(F)(F)F,0.406 ± 0.01,
O [water] + CCn1cc[n+](C)c1.O=S(=O)([N-]S(=O)(=O)C(F)(F)F)C(F)(F)F,2.32 ± 0.04,
O [water] + COP(=O)([O-])OC.Cn1cc[n+](C)c1,0.028 ± 0.01,
CC(C)=O [acetone],,215.16 ± 1.4 kPa and 215.04 ± 1.4 kPa and 216.82 ± 5.5 kPa
CC(C)=O [acetone] + CCn1cc[n+](C)c1.O=S(=O)([N-]S(=O)(=O)C(F)(F)F)C(F)(F)F,0.438 ± 0.01,
CCO [ethanol],,109.08 ± 0.72 kPa
CC(C)=O [acetone] + COP(=O)([O-])OC.Cn1cc[n+](C)c1,0.98 ± 0.01,
C1CCOC1 [tetrahydrofuran] + COP(=O)([O-])OC.Cn1cc[n+](C)c1,3.21 ± 0.05,
CO [methanol] + COP(=O)([O-])OC.Cn1cc[n+](C)c1,0.029 ± 0.01,
CCO [ethanol] + COP(=O)([O-])OC.Cn1cc[n+](C)c1,0.115 ± 0.01,
O [water] + CCCC[n+]1ccn(C)c1.O=S(=O)([N-]S(=O)(=O)C(F)(F)F)C(F)(F)F,2.27 ± 0.03,
CC(C)O [propan-2-ol],,92.26 ± 0.62 kPa and 91.99 ± 0.61 kPa
